{"source": "patent US20210386768A1", "about": "“COMBINATION MEDICINE” (FUJIFILM Corporation, priority 2019, published 2021)", "type_in_all_cases": "cell-based, human", "key": {"[1]": {"tested_on": "Cell derived from FLT3-ITD mutation-positive leukemia patient", "assay": "Proliferation inhibitory activity against cells derived from a leukemia patient by combined use (CellTiter-Glo, combination index), FLT3-ITD positive", "protocol": "(§1) <Evaluation of Proliferation Inhibitory Activity Against Cell Derived from Leukemia Patient by Combined Use of Existing Anti-Cancer Agent>\n(§2) Monocytes isolated from bone marrow or peripheral blood of two leukemia patients (one patient is FLT3-ITD mutation-positive, and the other patient is FLT3-ITD mutation-negative) were used and cultured in MethoCult™ H4534 Classic Without EPO (Cat. #H4534, manufacture by […] technologies). During this test, all cell cultures were performed in a CO2 incubator (setting: 37° C., 5% CO2, water vapor saturated). Cells were diluted with medium to 5,000 cells/well/90 μL and seeded on a 96-well plate.\n(§3) After serially diluting with DMSO and further diluting with a medium, each of the test substance solutions having a concentration 10 times the final treatment concentration was prepared.\n(§4) In addition, a group (a positive control group) in which only a solvent containing no drugs was added to a well in which cells were plated and a group (a negative control group) in which only a solvent containing no drugs was added to a well in which only a medium was added were prepared.\n(§5) After the addition of the drug, cells were cultured for 7 or 8 days, and the cell viability was evaluated using CellTiter-Glo (registered trade mark) Reagent (Cat. #G7570, manufactured by Promega Corporation) using the amount of ATP in the cells as an indicator.\n(§6) The suppression rate was determined by assuming that the amount of luminescence signal in the negative control group corresponded to the suppression of cell viability by 100% and the amount of luminescence signal in the positive control group corresponded to the suppression of cell viability by 0%. The concentration (IC50 value) at which cell viability is suppressed by 50% was calculated using XLFit (registered trade mark) software Ver. 3 (manufactured by ITOCHU Techno-Solutions Corporation). The suppression effect (Fa, the fraction affected by the dose) was calculated by dividing the suppression rate by 100.\n(§7) The combination effect of the present invention was determined by calculating the combination index (CI), which is a quantitative indicator of the combination effect, using CalcuSyn (BIOSOFT) based on the value of the suppression effect.\n(§8) In the table, “Fa around 0.5” and “Fa around 0.75” mean the effect of suppressing the cell viability by about 50% and about 75%, respectively, in a case where drugs are used in combination."}, "[2]": {"tested_on": "FLT3-ITD mutation-positive leukemia cell line MV-4-11", "assay": "Proliferation inhibitory activity against MV-4-11 by combined use of anti-cancer agents (CellTiter-Glo, combination index)", "protocol": "<Evaluation of Proliferation Inhibitory Activity Against FLT3-ITD Mutation-Positive Leukemia Cell Line MV-4-11 by Combined Use of Anti-Cancer Agent>\nMV-4-11 cells which are a human FLT3-ITD mutation-positive leukemia cell line were subcultured in an RPMI-1640 medium containing 10% serum. During this test, all cell cultures were performed in a CO2 incubator (setting: 37° C., 5% CO2, water vapor saturated). Cells were diluted with a medium containing 10% serum to 1,000 cells/well/20 μL and seeded on a 384-well plate.\nAfter being serially diluted with DMSO and further being diluted with a medium containing 10% serum, each of the test substance solutions having a concentration 10 times the final treatment concentration was prepared.\nas §4\nAfter the addition of the drug, cells were cultured for 3 days, and the cell viability was evaluated using CellTiter-Glo (registered trade mark) Reagent (Cat. #G7570, manufactured by Promega Corporation) using the amount of ATP in the cells as an indicator.\nas §6, §7, §8"}, "[3]": {"tested_on": "Cell derived from FLT3-ITD mutation-negative leukemia patient", "assay": "Proliferation inhibitory activity against cells derived from a leukemia patient by combined use (CellTiter-Glo, combination index), FLT3-ITD negative", "protocol": "as §1, §2, §3, §4, §5, §6, §7, §8"}, "[4]": {"details": "in combination with Compound A1"}, "[5]": {"details": "in combination with Compound A1, concentration fixing ratio A1:decitabine 1:10, A1:venetoclax 1:1, 7 or 8 days"}, "[6]": {"details": "in combination with Compound A1, MV-4-11"}}, "data": [{"substance": "Venetoclax", "values": [{"measurement": "combination effect in words, suppression effect around 0.5", "setting": "[1]; [4]", "result": "strong synergistic effect"}, {"measurement": "combination effect in words, suppression effect around 0.75", "setting": "[1]; [4]", "result": "strong synergistic effect"}, {"measurement": "combination index (CI), Fa around 0.5", "setting": "[1]; [5]", "result": "+++ (Less than 0.7, a strong synergistic effect)"}, {"measurement": "combination index (CI), Fa around 0.75", "setting": "[1]; [5]", "result": "+++ (Less than 0.7, a strong synergistic effect)"}, {"measurement": "combination index (CI), Fa around 0.5", "setting": "[2]; in combination with Compound A1 (succinate salt), concentration fixing ratio A1:decitabine 1:3,000, A1:venetoclax 1:120, MV-4-11, 3 days, average of 4 experiments, about 50% suppression of cell viability", "result": "++ (0.7 or more and less than 0.85, a moderate synergistic effect)"}, {"measurement": "combination index (CI), Fa around 0.75", "setting": "[2]; in combination with Compound A1 (succinate salt), concentration fixing ratio A1:decitabine 1:3,000, A1:venetoclax 1:120, MV-4-11, 3 days, average of 4 experiments, about 75% suppression of cell viability", "result": "+++ (Less than 0.7, a strong synergistic effect)"}, {"measurement": "combination effect in words, suppression effect around 0.5", "setting": "[2]; [6]", "result": "moderate synergistic effect"}, {"measurement": "combination effect in words, suppression effect around 0.75", "setting": "[2]; [6]", "result": "strong synergistic effect"}, {"measurement": "combination effect in words, suppression effect around 0.5", "setting": "[3]; [4]", "result": "strong synergistic effect"}, {"measurement": "combination effect in words, suppression effect around 0.75", "setting": "[3]; [4]", "result": "strong synergistic effect"}, {"measurement": "combination index (CI), Fa around 0.5", "setting": "[3]; [5]", "result": "+++ (Less than 0.7, a strong synergistic effect)"}, {"measurement": "combination index (CI), Fa around 0.75", "setting": "[3]; [5]", "result": "+++ (Less than 0.7, a strong synergistic effect)"}]}]}
